Results from patent US12285403B2, “A2-73 as a therapeutic for insomnia, anxiety and agitation” (Anavex Life Sciences Corp., priority 2016, dated 2025).
“Also recorded” adds a separate entry of the source.

Legend:
Assay type in all cases: in vivo, human
[1] = Systolic blood pressure monitored over the first 25 days of dosing in AD subjects
Procedure: An additional benefit of the therapeutic regimen disclosed herein is the beneficial control of systolic blood pressure in AD subjects taking daily oral dosages of A2-73 of from about 10 mg to about 50 mg. Systolic blood pressure was monitored over the first 25 days of dosing. A1-41 and A19-144 are similarly useful therapeutics.

[2] = system: mild-to-moderate Alzheimer's disease patients; assay: MMSE (Mini-Mental State Examination), Phase 2a study; settings: over 31 weeks; for MMSE scores: oral daily 10 mg to 50 mg, FIG. 1
Text: (§1) Although the present invention calls for methods of treating insomnia, some primary sleep disorders, such as circadian rhythm disorders, advanced sleep phase disorder also termed sleep onset insomnia, mid-nocturnal insomnia, early morning insomnia, hyper insomnia, trouble staying asleep, jet lag, narcolepsy, non-24-hour sleep-wake syndrome, include insomnia as a component of the disorder. Thus, the term “insomnia” should be understood to also include the insomnia component of these disorders. • Aβ—Amyloid beta is abbreviated as Aβ. • AD—Alzheimer's disease is abbreviated as AD. • ADCS-ADL—Alzheimer's Disease Cooperative Study Activities of Daily Living Inventory is abbreviated as ADCS-ADL. • Cogstate tasks—Cogstate tasks refers to Cogstate cognitive tests (Cogstate Alzheimer's Battery) using visual and verbal stimuli to ensure assessment. These tests assess cognitive function in adults with mild cognitive impairment and clinically-diagnosed Alzheimer's disease. The test is culture-neutral and not limited by a subject or participant's level of education. A Cogstate battery comprises a number of individual tests—each designed to test a specific area of cognition. When a number of these individual tests are put together to form a test battery, a more complete picture of a person's cognitive state can be defined. • DPZ—Donepezil is abbreviated as DPZ. • EEG/ERP—EEG/ERP is a reference to ERP measured via EEG. • ERP—Event-related potential is abbreviated as ERP. • HAM-D—Hamilton Depression Rating Scale is abbreviated as HAM-D. • MCI—Mild cognitive impairment is abbreviated as MCI. • MMSE—MMSE refers to the Mini-Mental State Examination (MMSE) or Folstein test. This test is a 30-point questionnaire that is used extensively in clinical and research settings to measure cognitive impairment. • SWS—Slow-wave sleep is abbreviated as SWS. • WASO.—Waking after sleep onset is abbreviated WASO.
(§2) Efficacy data is presented through 31 week from the randomized (into different treatment regimens) open-label study with ANAVEX 2-73 oral daily dosing ranging from 10 mg to 50 mg. […]

[3] = system: mild-to-moderate Alzheimer's disease patients; assay: ADCS-ADL (Activities of Daily Living), Phase 2a study; settings: for ADCS-ADL scores: through week 31, oral daily 10 mg to 50 mg, FIG. 2
Text: as §1, §2

[4] = system: mild-to-moderate Alzheimer's disease patients; assay: Cogstate test battery, Phase 2a study; settings: over 31 weeks of treatment; FIG. 8; listed as ANAVEX 2-73, hydrochloride
Text: Although the present invention calls for methods of treating insomnia, some primary sleep disorders, such as circadian rhythm disorders, advanced sleep phase disorder also termed sleep onset insomnia, mid-nocturnal insomnia, early morning insomnia, hyper insomnia, trouble staying asleep, jet lag, narcolepsy, non-24-hour sleep-wake syndrome, include insomnia as a component of the disorder. Thus, the term “insomnia” should be understood to also include the insomnia component of these disorders. • Aβ—Amyloid beta is abbreviated as Aβ. • AD—Alzheimer's disease is abbreviated as AD. • ADCS-ADL—Alzheimer's Disease Cooperative Study Activities of Daily Living Inventory is abbreviated as ADCS-ADL. • Cogstate tasks—Cogstate tasks refers to Cogstate cognitive tests (Cogstate Alzheimer's Battery) using visual and verbal stimuli to ensure assessment. […] When a number of these individual tests are put together to form a test battery, a more complete picture of a person's cognitive state can be defined. • DPZ—Donepezil is abbreviated as DPZ. • EEG/ERP—EEG/ERP is a reference to ERP measured via EEG. • ERP—Event-related potential is abbreviated as ERP. • HAM-D—Hamilton Depression Rating Scale is abbreviated as HAM-D. • MCI—Mild cognitive impairment is abbreviated as MCI. • MMSE—MMSE refers to the Mini-Mental State Examination (MMSE) or Folstein test. […]

[5] = Safety, tolerability and patient retention, Phase 2a study
Text: The safety and efficacy of A2-73 has been studied Phase 2a Study in mild-moderate Alzheimer's disease patients. […] Without being bound by any particular theory, it is believed that A2-73 activates the stress-reducing and survival protein, the Sigma-1 receptor. The data of Table 1 is from an open-label, clinical trial, performed on a group of 30 mild-to-moderate AD patients (MMSE range 16-23, 40% female) on donepezil treatment, with […] 2-73. […]

[6] = listed as ANAVEX 2-73, hydrochloride

CN(C)CC1CCOC1(c1ccccc1)c1ccccc1.Cl (stereo not drawn) [A2-73, tetrahydro-N,N-dimethyl-2,2-diphenyl-3-furanmethanamine hydrochloride]
Change in mean systolic BP, baseline to Day 25 ([1]; Hypertension Stage 1: 140-159 mm Hg): −16 mm Hg
Day 25 Mean systolic BP ±SD ([1]; Hypertension Stage 1: 140-159 mm Hg, baseline 145 ± 3): 129 ± 12 mm Hg
Change in mean systolic BP, baseline to Day 25 ([1]; Hypertension Stage 2: 160-179 mm Hg): −22 mm Hg
Day 25 Mean systolic BP ±SD ([1]; Hypertension Stage 2: 160-179 mm Hg, baseline 170 ± 8): 148 ± 19 mm Hg
Change in mean systolic BP, baseline to Day 25 ([1]; Hypertensive crisis >180 mm Hg): −27 mm Hg
Day 25 Mean systolic BP ±SD ([1]; Hypertensive crisis >180 mm Hg, baseline 185 ± 0): 159 ± 43 mm Hg
Change in mean systolic BP, baseline to Day 25 ([1]; Pre Hypertension 120-139 mm Hg): −9 mm Hg
Day 25 Mean systolic BP ±SD ([1]; Pre Hypertension 120-139 mm Hg, baseline 131 ± 6): 122 ± 15 mm Hg
Change in mean systolic BP, baseline to Day 25 ([1]; baseline classification <120 mm Hg): 8 mm Hg
Day 25 Mean systolic BP ±SD ([1]; baseline classification <120 mm Hg, baseline 115 ± 2, oral daily 10-50 mg): 123 ± 11 mm Hg
Systolic blood pressure in subjects with high-normal systolic blood pressure ([1]; first 25 days of dosing): rose
Systolic blood pressure in hypertensive subjects ([1]; first 25 days of dosing, greater reduction for increasingly hypertensive subjects): significantly reduced
MMSE scores ([2]; hydrochloride): maintained at the same level
MMSE scores [2, 6]: preserves average MMSE and ADCS-ADL scores
MMSE score, ANAVEX 2-73 alone vs ANAVEX 2-73 with DPZ (donepezil) ([2]; exploratory analysis, FIG. 5): no notable difference
ADCS-ADL score, ANAVEX 2-73 alone vs ANAVEX 2-73 with DPZ (donepezil) ([3]; over 31 weeks, exploratory analysis, FIG. 6): no notable difference
ADCS-ADL scores ([3]; hydrochloride): maintained at a constant level
ADCS-ADL scores [3, 6]: preserves average MMSE and ADCS-ADL scores
Cogstate tasks: psychomotor function, attention and working memory [4]: sustained benefit; also recorded: benefits over baseline
Adverse event: headache ([5]; 30 mg): 10%
Adverse event: mild dizziness ([5]; 30 mg): 5%
Changes in clinical labs and EKGs ([5]; 30 mg): no significant changes
Tolerability ([5]; 30 mg): well tolerated
Safety and tolerability/risk profile ([5]; 32 patients with mild-to-moderate AD, Phase 2a): favorable safety and tolerability/risk profile
